Drawing on patent US20100137313A1 (ASTRAZENECA AB, priority 2008, published 2010), this text covers inhibition for 31 molecules.

Chain of S. pneumoniae Topoisomerase IV ATPase (ParE) (Q59961 whole entry): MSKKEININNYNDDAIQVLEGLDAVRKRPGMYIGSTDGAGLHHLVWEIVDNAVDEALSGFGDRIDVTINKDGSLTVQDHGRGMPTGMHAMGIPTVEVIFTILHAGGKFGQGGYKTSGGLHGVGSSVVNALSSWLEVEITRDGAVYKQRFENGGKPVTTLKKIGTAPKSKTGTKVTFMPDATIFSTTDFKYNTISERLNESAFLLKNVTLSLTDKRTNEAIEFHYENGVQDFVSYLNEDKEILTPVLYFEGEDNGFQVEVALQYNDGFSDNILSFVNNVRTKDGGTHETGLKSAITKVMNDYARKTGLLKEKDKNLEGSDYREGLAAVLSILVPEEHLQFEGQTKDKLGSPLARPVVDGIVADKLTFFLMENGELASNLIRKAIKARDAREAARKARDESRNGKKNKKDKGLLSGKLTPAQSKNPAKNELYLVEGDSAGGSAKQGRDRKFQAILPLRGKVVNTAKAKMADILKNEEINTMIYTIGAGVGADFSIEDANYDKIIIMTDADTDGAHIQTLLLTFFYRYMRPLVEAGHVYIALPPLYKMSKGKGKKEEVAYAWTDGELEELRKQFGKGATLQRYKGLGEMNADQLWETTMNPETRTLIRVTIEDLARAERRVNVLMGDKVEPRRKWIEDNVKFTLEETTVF

The assay concerns the target S. pneumoniae Topoisomerase IV ATPase (ParE) (Streptococcus pneumoniae serotype 4, UniProt Q59961). Kind of assay: S. pneumoniae Topoisomerase IV ATPase inhibition. The class given is biochemical. The following applies: values marked * are an average of two or more data points, read-out: % Inh (13 μM) of S. pneumoniae Topoisomerase IV ATPase. The gist of the method:
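Malachite green/ammonium molybdate phosphate detection, A650. 1.25 nM ParE, 160 μM ATP, sheared salmon sperm DNA 5 μg/ml, 20 mM Tris pH 8.0, 8.0 mM MgCl2. Controls: 2% DMSO = 0%, 20 μM EDTA = 100% inhibition; IC50 over 10 concentrations.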
As for `CC(=O)Nc1ccn(-c2nc(Nc3ccc(F)c(Cl)c3)ncc2-c2cccc(/C=C/C(=O)O)c2)n1` [Example 566, (2E)-3-(3-{4-[3-(acetylamino)-1H-pyrazol-1-yl]-2-[(3-chloro-4-fluorophenyl)amino]pyrimidin-5-yl}phenyl)prop-2-enoic acid], the inhibition at 13 µM is 52%.

For the molecule `COc1cc(Nc2ncc(-c3cnc(NCCS(C)(=O)=O)c(C(=O)O)c3)c(-n3ccc(C(F)(F)F)n3)n2)cc(OC)c1` [Example 585, 5-(2-(3,5-dimethoxyphenylamino)-4-(3-(trifluoromethyl)-1H-pyrazol-1-yl)pyrimidin-5-yl)-2-(2-(methylsulfonyl)ethylamino)nicotinic acid], the inhibition at 13 µM is 100%.

Turning to `COCCCNc1nc(Nc2ccc(F)c(Cl)c2)ncc1-c1cncc(C(=O)O)c1` [Example 277, 5-(2-(3-chloro-4-fluorophenylamino)-4-(3-methoxypropylamino)-pyrimidin-5-yl)nicotinic acid], the inhibition at 13 µM is 85.9%.

`Cc1cc(C(F)(F)F)nn1-c1nc(Nc2cccc(Cl)c2)ncc1-c1cncc(C(=O)O)c1` [Example 744, 5-{2-[(3-chlorophenyl)amino]-4-[5-methyl-3-(trifluoromethyl)-1H-pyrazol-1-yl]pyrimidin-5-yl}pyridine-3-carboxylic acid]: the inhibition at 13 µM is 100%.

As to `CN(C)CCCNc1nc(Nc2ccc(F)c(Cl)c2)ncc1-c1ccc(C(=O)N(C)C)s1` [Example 366, 5-(2-(3-chloro-4-fluorophenylamino)-4-(3-(dimethylamino)propylamino)pyrimidin-5-yl)-N,N-dimethylthiophene-2-carboxamide], the inhibition at 13 µM came to 80.5%.

Take `Cc1cc(C)cc(Nc2ncc(-c3ccc4c(c3)C(=O)NS4(=O)=O)c(-n3nc(C(F)(F)F)cc3C)n2)c1` [Example 832, 5-{2-[(3,5-dimethylphenyl)amino]-4-[5-methyl-3-(trifluoromethyl)-1H-pyrazol-1-yl]pyrimidin-5-yl}-1,2-benzothiazol-3(2H)-one 1,1-dioxide]: the inhibition at 13 µM was 100%.

Regarding `O=C(O)/C=C/c1cccc(-c2cnc(Nc3ccc(F)c(Cl)c3)nc2-n2ccnc2)c1` [Example 359, (E)-3-(3-(2-(3-chloro-4-fluorophenylamino)-4-(1H-imidazol-1-yl)pyrimidin-5-yl)phenyl)acrylic acid], the inhibition at 13 µM stood at 86.1%.

Turning to `COc1cc(Nc2ncc(-c3c[nH]c(=O)c(C(=O)O)c3)c(-n3ccc(C(F)(F)F)n3)n2)cc(OC)c1` [Example 1096, 5-(2-(3,5-Dimethoxyphenylamino)-4-(3-(trifluoromethyl)-1H-pyrazol-1-yl)pyrimidin-5-yl)-2-oxo-1,2-dihydropyridine-3-carboxylic acid], the inhibition at 13 µM is 100%.

As for `C[C@@H](Nc1nc(Nc2ccc(F)c(Cl)c2)ncc1-c1cncc(C(=O)O)c1)C(=O)O` [Example 240, 5-[2-[(3-chloro-4-fluorophenyl)amino]-4-[[(2R)-1-hydroxy-1-oxopropan-2-yl]amino]pyrimidin-5-yl]pyridine-3-carboxylic acid], the inhibition at 13 µM came out at 45.8%.

On to `CCOC(=O)c1cncc(-c2cnc(Nc3ccc(F)c(Cl)c3)nc2N2CC(C)OC(C)C2)c1` (stereo not shown) [Example 139, ethyl 5-(2-(3-chloro-4-fluorophenylamino)-4-(2,6-dimethylmorpholino)pyrimidin-5-yl)nicotinate], for which the inhibition at 13 µM was 80.1%.

In the case of `Fc1ccc(Nc2ncc(-c3cncnc3)c(NCc3ccco3)n2)cc1Cl` [Example 53, N^2-(3-chloro-4-fluorophenyl)-N^4-(furan-2-ylmethyl)-5-pyrimidin-5-ylpyrimidine-2,4-diamine], the inhibition at 13 µM was 70.5%.

`COc1ncc(-c2cnc(Nc3cc(C)cc(C#N)c3)nc2-n2nc(C(F)(F)F)cc2C)cc1C(=O)O` [Example 781, 5-{2-[(3-cyano-5-methylphenyl)amino]-4-[5-methyl-3-(trifluoromethyl)-1H-pyrazol-1-yl]pyrimidin-5-yl}-2-methoxypyridine-3-carboxylic acid]: the inhibition at 13 µM was 99%.

Turning to `O=C(O)COc1ccc(-c2cnc(Nc3ccc(F)c(Cl)c3)nc2N2CCOCC2)cc1` [Example 489, (4-{2-[(3-chloro-4-fluorophenyl)amino]-4-(morpholin-4-yl)pyrimidin-5-yl}phenoxy)acetic acid], the inhibition at 13 µM amounted to 97%.

For `CC(=O)N1CCN(c2nc(Nc3ccc(F)c(Cl)c3)ncc2-c2ccc(C(=O)O)s2)CC1` [Example 982, 5-(4-(4-Acetylpiperazin-1-yl)-2-(3-chloro-4-fluorophenylamino)pyrimidin-5-yl)thiophene-2-carboxylic acid], the inhibition at 13 µM was determined as 100%.

With `Cn1cc(-c2cnc(Nc3ccc(F)c(Cl)c3)nc2-n2ccc(C(F)(F)F)n2)cc(C(=O)O)c1=O` [Example 1087, 5-(2-(3-Chloro-4-fluorophenylamino)-4-(3-(trifluoromethyl)-1H-pyrazol-1-yl)pyrimidin-5-yl)-1-methyl-2-oxo-1,2-dihydropyridine-3-carboxylic acid], the inhibition at 13 µM turned out to be 100%.

`O=C(O)c1cncc(-c2cnc(Nc3ccc(F)c(S(=O)(=O)N4CCOCC4)c3)nc2N2CCOCC2)c1` [Example 444]: the inhibition at 13 µM was 7%.

As for `COc1cc(Nc2ncc(-c3cccc(/C=C/C(=O)O)c3)c(N3CCOCC3)n2)ccc1F` [Example 452], the inhibition at 13 µM was 76%.

For `COC(=O)c1cc(-c2cnc(Nc3ccc(F)c(Cl)c3)nc2-n2ccc(C(F)(F)F)n2)cnc1OC` [Example 1010, Methyl 5-(2-(3-chloro-4-fluorophenylamino)-4-(3-(trifluoromethyl)-1H-pyrazol-1-yl)pyrimidin-5-yl)-2-methoxynicotinate], the inhibition at 13 µM came out at 81%.

Regarding `O=C(O)c1cncc(-c2cnc(Nc3ccc4c(c3)CCC4)nc2-n2ccc(C(F)(F)F)n2)c1` [Example 668, 5-{2-(2,3-dihydro-1H-inden-5-ylamino)-4-[3-(trifluoromethyl)-1H-pyrazol-1-yl]pyrimidin-5-yl}pyridine-3-carboxylic acid], the inhibition at 13 µM was 85%.

For `CONC(=O)c1cncc(-c2cnc(Nc3ccc(F)c(Cl)c3)nc2-n2nc(C(F)F)cc2C(F)F)c1` [Example 547, 5-{4-[3,5-bis(difluoromethyl)-1H-pyrazol-1-yl]-2-[(3-chloro-4-fluorophenyl)amino]pyrimidin-5-yl}-N-methoxypyridine-3-carboxamide], the inhibition at 13 µM was 71%.

As for `CN(C)CCCNc1nc(Nc2ccc(F)c(Cl)c2)ncc1-c1cncc(C(=O)NCc2ccccc2)c1` [Example 371, N-benzyl-5-(2-(3-chloro-4-fluorophenylamino)-4-(3-(dimethylamino)propylamino)pyrimidin-5-yl) nicotinamide], the inhibition at 13 µM was 82.2%.

As to `O=C(NCCO)c1cccc(-c2cnc(Nc3ccc(F)c(Cl)c3)nc2-n2ccc(C(F)(F)F)n2)c1` [Example 1146, 3-(2-(3-chloro-4-fluorophenylamino)-4-(3-(trifluoromethyl)-1H-pyrazol-1-yl)pyrimidin-5-yl)-N-(2-hydroxyethyl)benzamide], the inhibition at 13 µM amounted to 100%.

`OC1CCN(c2nc(Nc3ccc(F)c(Cl)c3)ncc2-c2cncnc2)CC1` [Example 60, 1-[2-[(3-chloro-4-fluorophenyl)amino]-5-pyrimidin-5-ylpyrimidin-4-yl]piperidin-4-ol]: the inhibition at 13 µM is 72.3%.

Regarding `COc1cc(Cl)cc(Nc2ncc(-c3cncc(C(=O)O)c3)c(-n3nc(C(F)(F)F)cc3C)n2)c1` [Example 775, 5-{2-[(3-chloro-5-methoxyphenyl)-amino]-4-[5-methyl-3-(trifluoromethyl)-1H-pyrazol-1-yl]pyrimidin-5-yl}pyridine-3-carboxylic acid], the inhibition at 13 µM turned out to be 100%.

Turning to `Cc1cnc(C(=O)NCCCNc2nc(Nc3ccc(F)c(Cl)c3)ncc2-c2cncc(C(=O)O)c2)cn1` [Example 278], the inhibition at 13 µM was determined as 77%.

`COc1ncc(C(=O)O)cc1-c1cnc(Nc2cc(C)cc(C)c2)nc1-n1nc(C(F)(F)F)cc1C` [Example 1142, 5-(2-(3,5-dimethylphenylamino)-4-(5-methyl-3-(trifluoromethyl)-1H-pyrazol-1-yl)pyrimidin-5-yl)-6-methoxynicotinic acid]: the inhibition at 13 µM came to 100%.

Consider `CCNC(=O)c1ccc(-c2cnc(Nc3ccc(F)c(Cl)c3)nc2NCCCN(C)C)s1` [Example 367, 5-(2-(3-chloro-4-fluorophenylamino)-4-(3-(dimethylamino)propylamino)pyrimidin-5-yl)-N-ethylthiophene-2-carboxamide], for which the inhibition at 13 µM was 104%.

On to `CCOC(=O)c1cncc(-c2cnc(Nc3ccc(F)c(Cl)c3)nc2NCc2ccccn2)c1` [Example 95, 5-{2-(3-Chloro-4-fluoro-phenylamino)-4-[(pyridin-2-ylmethyl)-amino]-pyrimidin-5-yl}-nicotinic acid ethyl ester], for which the inhibition at 13 µM was -0.48%.

Turning to `COc1cc(Nc2ncc(-c3cncc(C(=O)O)c3)c(-n3nc(C)cc3C(F)F)n2)cc(OC)c1` [Example 1127, 5-(4-(5-(difluoromethyl)-3-methyl-1H-pyrazol-1-yl)-2-(3,5-dimethoxyphenylamino)pyrimidin-5-yl)nicotinic acid], the inhibition at 13 µM is 100%.

Regarding `O=C(O)c1cc2ccc(-c3cnc(Nc4ccc(F)c(Cl)c4)nc3N3CCOCC3)cc2[nH]1` [Example 1063, 6-(2-(3-Chloro-4-fluorophenylamino)-4-morpholinopyrimidin-5-yl)-1H-indole-2-carboxylic acid], the inhibition at 13 µM was found to be 94%.

As for `CC(=O)NCCNc1nc(Nc2ccc(F)c(Cl)c2)ncc1-c1cncnc1` [Example 37, N-[2-[[2-[(3-chloro-4-fluorophenyl)amino]-5-pyrimidin-5-ylpyrimidin-4-yl]amino]ethyl] acetamide], the inhibition at 13 µM was determined as 76.3%.
